The values that follow come from US8263601B2, “Deuterium substituted xanthine derivatives” (CoNCERT Pharmaceuticals, Inc., priority 2009, dated 2012).

Each structure is given as a SMILES string. Read-outs that look alike come from different tables or passages of the source.

On the set-up of data set [1]: species or system male beagle dogs. The following applies: male, beagle, dog, in vivo, po. Here is the method: This study was similar to those described in Examples 34a and 34b, except that Compound 413 was evaluated. Four male beagle dogs were orally dosed by gavage with a mixture containing 2 mg/mL each of pentoxifylline and Compound 413 in saline. Blood samples were taken as in Example 34b.

The nature of data set [2]: Stability of compounds in rat whole blood (Example 35). The data set is classed as in vitro ADME. Particulars: 5 μM, 37° C.; for Keto-compound (pentoxifylline or Compound 409) formed from M-1 alcohol: 2 hours, FIG. 3. Here is the method: This study was performed to evaluate the stability of the title compounds in rat whole blood. Because the ketone (or keto-compound; either pentoxifylline or 409) and its corresponding M-1 alcohol metabolite interconvert, levels of these components were measured after either the keto-compound was added to the blood or the M-1 was added. In other words, in some tests the keto-compound was the starting test compound and in other tests an M-1 metabolite was the starting test compound.
Fresh rat whole blood was obtained from ViviSource Laboratories, Waltham, Mass. Stock solutions (7.5 millimolar (mM)) of test compounds were prepared in dimethyl sulfoxide (DMSO). The 7.5 mM stock solutions were diluted to 500 micromolar (μM) in acetonitrile (ACN). To 990 microliters (μL) of blood pre-warmed to 37° C. for 7 minutes was added 10 μl, of 500 μM test compound to a final concentration of 5 μM. The test compounds were pentoxifylline, (S)-M1 metabolite of pentoxifylline, (R)-M1 metabolite of pentoxifylline, Compound 409, Compound 435(S), and Compound 435(R). The latter two test compounds are deuterated (S)-M1 and (R)-M1 metabolites, respectively, of Compound 409. The reaction mixture was incubated at 37° C. Aliquots (50 μL) were removed at 0 min, 5 min, 15 min, 30 min, 1 hour and 2 hours following the addition of test compound and added to 96-well plates containing 150 μL of ice cold acetonitrile with an internal standard to stop the reaction. The plates were stored at −20° C. for 20 minutes after which 100 μL of 50% acetonitrile/water was added to the wells of the plate prior to centrifugation to pellet precipitated proteins. A 200-μL aliquot of each supernatant was transferred to another 96-well plate and analyzed by LC-MS/MS using an Applied Bio-systems API 4000 mass spectrometer for amounts of the administered compound and its specific metabolite listed in Table 11 below.
The results of this study are depicted in FIGS. 2 and 3.

A short description of another data set: in vivo. Also noted: species or system male beagle dogs. The following applies: male, beagle, dog, po. On the procedure: Metabolism of the title compounds were studied following oral administration to male beagle dogs. Blood samples were removed from dosed dogs at various time points and plasma isolated therefrom. The plasma samples were used for the determination of plasma drug levels by LC-MS/MS (liquid chromatography with tandem mass spectrometry) for estimating pharmacokinetic parameters.
Compound 409 and pentoxifylline were dissolved separately in saline to a concentration of 4 mg/mL. A 1:1 (v/v) mixture of the two solutions was prepared to yield a solution having a final concentration of 2 mg/mL of both Compound 409 and pentoxifylline.
Two male beagle dogs were fasted overnight and then orally dosed via gavage with 2.5 mg/kg of Compound 409 and pentoxifylline using the mixture described above. Blood samples (1.5-2 mL) were collected via the femoral vein at 0 min (pre-dose), 15 min, 30 min, 45 min, 1 hr, 1.5 hr, 2 hr, 3 hr, 4 hr, 6 hr, 8 hr, 10 hr, 12 hr, 16 hr and 24 hr post-dose. Blood was stored on ice prior to centrifugation to obtain plasma samples. Centrifugation took place within 1 hour of blood collection to harvest plasma (maximum volume). The plasma was decanted immediately and frozen/stored at −70° C. until analysis.

Details of data set [3]: species or system beagle dogs. The following applies: dog, in vivo, po. On the procedure:
Example 34a was repeated with additional monitoring of the pentoxifylline and Compound 409 metabolites. In this experiment Compound 409 and pentoxifylline were dissolved separately in saline to a concentration of 4.4 and 4 mg/mL respectively. A 1:1 (v/v) mixture of the two solutions was prepared to yield a solution having a final concentration of 2.2 mg/mL of Compound 409 and 2 mg/mL pentoxifylline. Post-dosing data analysis included adjustments to account for the 10% difference in dosing concentration between compound 409 and pentoxifylline.
Four beagle dogs (2-3 years of age, and weighed 5 to 8 kg) were fasted overnight and then orally dosed via gavage with 2.75 mg/kg Compound 409 and 2.5 mg/kg pentoxifylline using the mixture described above. Blood samples (approximately 1 mL) were collected via femoral vein at 0 min (pre-dose), 5 min, 15 min, 30 min, 45 min, 1 hr, 1.5 hr, 2 hr, 3 hr, 4 hr, and 6 hr post-dose. Blood was stored on ice prior to centrifugation to obtain plasma samples. Centrifugation took place within 15 minutes of blood collection to harvest plasma (maximum volume). The plasma was decanted immediately and frozen/stored at −20° C. until analysis.
Plasma samples were analyzed by LC-MS/MS for the presence of the administered compound and its corresponding M1 metabolite:
The results from one of the four dogs (Dog H, FIG. 1b) were inconsistent with that of the other three. […] It was concluded that this dog was most likely improperly gavaged and that the compounds were probably administered through the trachea, rather than into the GI tract as would have been desired. Accordingly, the data from this dog was excluded from the analyses.

A short description of data set [4]: Compound stability in human liver microsomes (Example 36). The data set is classed as in vitro ADME. Particulars: human liver microsomes 2.0 mg/mL, 5 μM, NADPH, 30 minutes, FIG. 5 columns A and B. On the procedure: Example 36 is similar to Example 35 in design, except that human liver microsomes were used instead of rat whole blood to study the metabolism of the compounds.
Human liver microsomes (20 mg/mL) were obtained from Xenotech, LLC (Lenexa, Kans.). β-nicotinamide adenine dinucleotide phosphate, reduced form (NADPH), magnesium chloride (MgCl2), and dimethyl sulfoxide (DMSO) were purchased from Sigma-Aldrich.
Stock solutions containing 7.5 mM of test compounds (pentoxifylline, (S)-M1 metabolite, (R)-M1 metabolite, Compound 409, Compound 435(S), and Compound 435(R)) were prepared in DMSO. The 7.5-mM stock solutions were diluted to 250 μM in acetonitrile (ACN). The human liver microsomes were diluted to 2.5 mg/mL in 0.1 M potassium phosphate buffer, pH 7.4, containing 3 mM MgCl2. The diluted microsomes were added to wells of a 96-well deep-well polypropylene plate in triplicate. 10 μL of the 250 μM test compound was added to the microsomes and the mixture was pre-warmed to 37° C. for 10 minutes. Reactions were initiated by addition of pre-warmed NADPH solution. The final reaction volume was 0.5 mL and contained 2.0 mg/mL human liver microsomes, 5 μM test compound, and 2 mM NADPH in 0.1M potassium phosphate buffer, pH 7.4, and 3 mM MgCl2. The reaction mixtures were incubated at 37° C., and 50-μL aliquots were removed at 0, 5, 10, 20, and 30 minutes and added to shallow-well 96-well plates which contained 50 μL of ice-cold acetonitrile with internal standard to stop the reactions. The plates were stored at 4° C. for 20 minutes after which 100 μL of water was added to the wells of the plate before centrifugation to pellet precipitated proteins. Supernatants were transferred to another 96-well plate and analyzed for the amount of the administered compound and its specific metabolite (listed in Table 11 above) by LC-MS/MS using an Applied Bio-systems API 4000 mass spectrometer.
The results of this study are depicted in FIGS. 4 and 5. […]

Take `[2H]c1nc2c(c(=O)n(CCCC([2H])([2H])C(=O)C([2H])([2H])[2H])c(=O)n2C([2H])([2H])[2H])n1C([2H])([2H])[2H]` [Compound 413, 8-d1-3,7-Di(methyl-d3)-1-(4,4,6,6,6-d5-5-oxohexyl)-1H-purine-2,6(3H,7H)-dione]: in data set [1], the “% Difference in Ave. AUC (deuterated vs nondeuterated species)” value (“% Difference in Ave. AUC” for short) is on record as “+74%” and the “% Difference in Ave. Cmax (deuterated vs nondeuterated species)” value (“% Difference in Ave. Cmax” for short) is reported as “+47%”.
In the case of `C[C@@H](O)CCCCn1c(=O)c2c(ncn2C)n(C)c1=O` [(R)-M1, reference compound], the “Keto-compound (pentoxifylline or Compound 409) formed from M-1 alcohol” value in data set [2] is “No metabolism of (R)-M1 to pentoxifylline was detected”.
Turning to `[2H]c1nc2c(c(=O)n(CCCC([2H])([2H])C(=O)C([2H])([2H])[2H])c(=O)n2C)n1C([2H])([2H])[2H]` [Compound 409, 8-d1-3-methyl-7-(methyl-d3)-1-(6-d3-4-d2-5-oxohexyl)-1H-purine-2,6(3H,7H)-dione], in “in vivo”, the “% Difference in Ave. AUC” value is on record as “+80%” and the “% Difference in Ave. Cmax” value was “+57%”. Also, in the data set “in vivo” (2.5 mg/kg), the AUC came to 811 ng·h/mL and the highest concentration (Cmax) was determined as 1230 ng/mL. Also, in data set [3] (beagle), the “% Difference in Ave. AUC” value was “+97%” and the “% Difference in Ave. Cmax” value is recorded as “+80%”. The “Clearance from the plasma compared to pentoxifylline” value in data set [3] was “more slowly cleared”. Besides, in data set [2] (approximately 2 hours, FIG. 3 columns A and B), the “Amount of (S)-M1 type metabolite (Compound 419(S)) formed from keto-compound, compared to (S)-M1 formed from pentoxifylline” value is “similar”. Further, in data set [4], the “Amount of (S)-M1 type metabolite (Compound 419(S)) formed from keto-compound, compared to (S)-M1 formed from pentoxifylline” value is reported as “similar”.
For `[2H]c1nc2c(c(=O)n(CCCC([2H])([2H])C(O)C([2H])([2H])[2H])c(=O)n2C)n1C([2H])([2H])[2H]` (racemic) [Compound 419, (±)-8-d1-1-(4,4,6,6,6-d5-5-Hydroxyhexyl)-3-methyl-7-(methyl-d3)-1H-purine-2,6(3H,7H)-dione], the “Overall systemic exposure to M1 metabolite compared to M1 following dosing of pentoxifylline” value in data set [3] was “greater”.
Take `[2H]c1nc2c(c(=O)n(CCCC([2H])([2H])[C@]([2H])(O)C([2H])([2H])[2H])c(=O)n2C)n1C([2H])([2H])[2H]` [Compound 435(R), (R)-8-d1-1-(4,4,5,6,6,6-d6-5-Hydroxyhexyl)-3-methyl-7-(methyl-d3)-1H-purine-2,6(3H,7H)-dione]: the “Keto-compound (pentoxifylline or Compound 409) formed from M-1 alcohol” value in data set [2] is “not detected”.
